Counter-ions that a name gives are not always drawn.

The results in this text go back to patent publication US20090253743A1, “COMPOSITIONS OF TOLPERISONE” (Avigen, Inc., priority 2007, published 2009).

Common to all, as to assay type: physicochemical
Data set [1] can be described thus: HPLC-MS/MS analysis of 4-MMPPO content in tolperisone compositions. The note with it: drug lot (API) used in the tablet. The method, then: Tolperisone compositions were obtained from various commercial sources and analyzed for 4-MMPPO content by HPLC-MS/MS.
All samples used in the analytical sequence were prepared for analysis as follows. Sample were homogenized if necessary (e.g., tablets) and weighed. For each tolperisone sample, approximately 20 mg of sample was added into a 20 mL flask. 20 mL of 50 mM HCl in MeOH was added to the flask, which was then placed in an ultrasonic bath for about 5 minutes. The contents of the flask were mixed on a vortexer for about 20 seconds. In instances in which the tolperisone sample had initially been in tablet form, the solution was then centrifuged at 4000 rpm for 2 minutes. 200 μL of the sample was then transferred into a small conical centrifuge vial. 20 μL of an internal standard solution containing deuterated 4-MMPPO, 200 μL of buffer at pH 1, and 0.4 mL of diisopropyl ether (DIPE) were added to the vial. The sample was then extracted by vortexing with a DVX-2500 multi-tube vortexer (2100 rpm) for about 2 minutes (cycle: 5 seconds run, 1 second pause time) and centrifugation (phase separation) at 4000 rpm for 2 minutes. 150 μL of 50 mM HCl in MeOH/DMSO (½) was added into empty designated conical autosampler vials. After centrifugation, 100 μL of supernatant was transferred into these conical autosampler vials. The vials were crimped and vortexed with a DVX-2500 multi-tube vortexer (2100 rpm) for about 1 minute. 7 μL of the prepared sample was then injected immediately into an HPLC-MS/MS system or the sample was stored at a temperature below −20° C. until analysis. The chromatography conditions and mass spectrometry parameters used for analysis of 4-MMPPO are shown below in Tables 1 and 2, respectively.
Lots of tolperisone were obtained from manufacturers A and B, as were the final manufactured tablet formulations. Analyses were carried out as described in Example 1 to determine 4-MMPPO levels in both drug lots and final manufactured formulations.

Data set [2] is described as follows: Stability studies of 4-MMPPO / tolperisone HCl solutions (liquid-liquid extraction, HPLC-MS/MS). The method, then:
The analytical method employed utilized liquid-liquid extraction and HPLC separation on a C18-column with MS/MS detection and internal standardization.
Test solution: 50 mM HCl in methanol containing 40 mg per 200 μL of tolperisone HCl (containing 4-MMPPO as an impurity)
Samples were prepared for analysis generally as follows. 200 μL of IS working solution was added to the dry weighed bulk material or to the 20 μL aliquots. The samples were vortexed, followed by addition of 200 μL of buffer solution. 0.40 mL of DIPE (diisopropyl ether) was then added, followed by extraction via vortexing, and phase separation via centrifugation. About 250 μL of supernatant solution was then transferred into each 5 mL conical centrifuge vial, followed by addition of 200 μL of buffer solution. The major portion of tolperisone was then re-extracted into the watery phase by vortexing, followed by phase separation by centrifugation. 50 μL of centrifugation supernatant was then transferred to each auto sample vial containing injection solution (75 μL of 50 mM HCl in DMSO/MeOH 2/1). Samples were capped (crimped) and vortexed, followed by injection of 7 μL sample into the HPLC-MS/MS system for analysis.
During stability studies for a calibration range from 1-200 ppm, various solutions: a) 4-MMPPO in tolperisone free solution (“reference solution”), b) tolperisone HCl solution (default concentration of 10 mg/mL) without spiking of any 4-MMPPO (“test solution”), and c) tolperisone HCl solution (default concentration of 10 mg/mL) spiked with 4-MMPPO (“spiked test solution”) were assessed under the following storage conditions: (i) for three freeze thaw cycles prior to sample preparation for analysis, (ii) at bench top temperature for 4 hours, and (iii) at auto sampler conditions for 12 hours after sample preparation for analysis. […] Additionally, 4-MMPPO was stable at −70° C. for 2 months prior to sample preparation for analysis.
During stability studies for a concentration range from 0.05-25 ppm, various solutions: a) 4-MMPPO in tolperisone free solution (“reference solution”), b) tolperisone HCl solution (default concentration of 200 mg/mL) without spiking of any 4-MMPPO (“test solution”), and c) tolperisone HCl solution (default concentration of 200 mg/mL) spiked with 4-MMPPO (“spiked test solution”) were assessed under the following storage conditions: (i) at bench top temperature for 2 hours prior to sample preparation for analysis, and (ii) at auto sampler conditions for 14 hours after sample preparation for analysis.

Data set [3] in a line: HPLC-MS/MS analysis of 4-MMPPO content in tolperisone compositions.
[4] abbreviates: calibration range 1-200 ppm, tolperisone HCl 10 mg/mL, each of: three freeze thaw cycles, bench top 4 hours, auto sampler 12 hours.
[5] abbreviates: range 0.05-25 ppm, tolperisone HCl 200 mg/mL, auto sampler conditions 14 hours after sample preparation.

Take `Cc1ccc(C(=O)C(C)CN2CCCCC2)cc1` (centres unmarked) [SB0068, tolperisone]: in data set [1], the “[4-MMPPO in Drug Lot or API], ppm” value is on record as 39 ppm.
Same read-out and setting: for `Cc1ccc(C(=O)C(C)CN2CCCCC2)cc1` (centres unmarked) [SD0108, tolperisone] the value was 14 ppm.
On the same count and under the same terms, then `Cc1ccc(C(=O)C(C)CN2CCCCC2)cc1` (centres unmarked) [SE0107, tolperisone], with 20 ppm.
Consider `Cc1ccc(C(=O)C(C)CN2CCCCC2)cc1` (centres unmarked) [SF0191, tolperisone], for which, in data set [1], the “[4-MMPPO in Drug Lot or API], ppm” value came out at 22 ppm.
With `Cc1ccc(C(=O)C(C)CN2CCCCC2)cc1` (centres unmarked) [SFO192, tolperisone], the “[4-MMPPO in Drug Lot or API], ppm” value in data set [1] and in data set [1] (listed as SF0192) was 21 ppm each time.
In the case of `C=C(C)C(=O)c1ccc(C)cc1` [Sample 4-MMPPO, 2-methyl-1-(4-methylphenyl)-propenone], the “4-MMPPO concentration on storage of solution” value in data set [2] (setting [4]) and in data set [2] (setting [5]) was “constant 4-MMPPO concentration” in each case. Moreover, the “stability prior to sample preparation” value in data set [2] (−70° C. for 2 months) is “stable”.
Take `Cc1ccc(C(=O)C(C)CN2CCCCC2)cc1` (centres unmarked) [tolperisone HCl, tolperisone hydrochloride]: the “level of 4-MMPPO” value in data set [3] (recrystallized, washed with MTBE saturated with citric acid) is reported as “below 1 ppm”. Also, the “4-MMPPO concentration on storage of solution” value in data set [2] (setting [4]) was “slight increase”; in data set [2] (setting [5]) it was “constant 4-MMPPO concentration”; in data set [2] (range 0.05-25 ppm, tolperisone HCl 200 mg/mL, bench top temperature 2 hours prior to sample preparation), “slight increase”.
Turning to `Cc1ccc(C(=O)C(C)CN2CCCCC2)cc1` (centres unmarked) [tolperisone, 2-methyl-1-(4-methylphenyl)-3-(-piperidinyl)-1-propanone], the “4-MMPPO in recrystallized tolperisone” value in data set [3] (Example 2, single standard recrystallization from 2-butanone/isopropanol, dried at 45-85° C.) is 0.14 % by weight; in data set [3] (Example 2, subsequent production batches) it was below 0.05%. For the same molecule, the “4-MMPPO levels in the final recrystallized tolperisone product” value in data set [3] (Example 5, 1% (v/v) concentrated aqueous HCl added to the recrystallization mixture) is on record as “below 6.6 ppm”. Moreover, the stability during recrystallization entry in data set [3] (in the presence of acid) is “enhanced stability”.
